This is an account of results in patent US12448624B2, “Modified nucleic acid having improved treatment efficacy, and anticancer pharmaceutical composition containing same” (INTEROLIGO CORPORATION, priority 2018, dated 2025).

{Gem} = gemcitabine nucleotide residue

Series [1] can be described thus: In vitro stability: dFdC and dFdU in plasma by LC-MS/MS. The class given is in vitro ADME. The following applies: rat plasma. As for the experimental part: From the chromatogram obtained by the established LC-MS/MS assay method, peak area ratios of dFdC, dFdU and dFdCTP to a peak area of the internal standard substance were estimated, followed by calculating a concentration in the mouse plasma and a concentration in tissues from a previously created calibration curve.
1 mL of mouse blood was collected and placed in a 1.5 mL Eppendorf tube containing 10 μL of 10 mg/mL (in DW) tetrahydrouridine (THU). After centrifugation under conditions of 14,000 rpm and 4° C. for 2 minutes using a centrifuge, only plasma was taken and transferred to another vial and stored at −80° C. After transferring 50 μL of plasma to a 1.5 mL amber Eppendorf tube, 150 μL of an internal standard substance (meltform 1.29 μg/mL in ACN) was added and vortexed for 10 minutes. Centrifugation was conducted using a centrifuge under conditions of 14,000 rpm and 4° C. for 20 minutes. In the centrifuged tube, 150 μL of sample was transferred to another 1.5 mL amber Eppendorf tube. An organic solvent was dried using a GeneVac EZ-2 automated evaporation system (GeneVac Ltd., Ipswich, UK). (GeneVac HPLC mode, max temperature 35° C., 1 hr). The organic solvent was reconstituted by adding 125 μL DW to a 1.5 mL dried amber Eppendorf tube. After vortexing for 5 minutes, centrifugation was conducted using a centrifuge under conditions of 14,000 rpm and 4° C. for 5 minutes. The supernatant of the centrifuged solution was added in an amount of 100 μL to each vial for LC-MS/MS using a PTFE (hydrophilic) 0.2 μm syringe filter (Toyo Toshi, Japan). Specifically, 5 μL of the supernatant was injected into each LC-MS/MS.
Chromatography was performed using an Agilent 1200 series separation module (Agilent Technologies, Waldbronn, Germany). […] An injection volume was 5 μL, a mobile phase was a gradient eluent system [A: 100% ACN, B: 0.1% formic acid in DW], and a total running time was 20 minutes. A calibration range was set to be 20 to 5,000 ng/mL.
Each sample was treated according to the above 2-1-1 and 2-1-2, and a ratio of dFdC/dFdU in rat plasma was measured in regard to the compound types of (Gem)x-[TGG]m[TTG][TGG]n.

Series [2] has as its system BxPC3 (pancreatic cancer). Description: Cell proliferation inhibition (MTT), BxPC3. The following applies: MTT assay, 3 days. The class given is cell-based. Background: Tetrazolium dyes change colour on reduction, which living cells bring about.
Procedure: (§1) 2.5 to 5.0×10^5 cells/well, which is the cell number defined by cell test to determine the appropriate cell concentration in the pancreatic cancer cell line B x PC3 cell (ATCC, IMDM+10% PBS), were seeded in a 96 well plate and incubated for one day. […] The treated BxPC3 cells were incubated in a 5% CO2 incubator for 3 days, treated with 20 μL of reagent solution for MTT assay (Cell Proliferation KitII, Roche), and then incubated hourly (10 minutes, 30 minutes, 60 minutes), followed by measuring absorbance at 490 nm by a reader through ELISA (See FIGS. 28 and 29).
(§2) Cell proliferation inhibitory efficacy against other cell lines MD-MBA 231 (breast cancer), Uuh-7 (liver cancer), HT29 (colon cancer) and Mv4-11 (AML) was also verified in the same manner as described above.
Series [3] concerns BxPC3, PANC-1, Miapaca-2, and Capan-1. Description: Cell survival (WST-1) of pancreatic cancer cell lines. The class given is cell-based. The following applies: WST-1, 48 hours, 100 nM to 100 μM, all four pancreatic cancer cell lines. As for the experimental part: BxPC3, PANC-1, Miapaca-2, and Capan-1 were cultured as pancreatic cancer cell lines, respectively. When the cells were stable after several subcultures, 1×10^3 cells were seeded in 96 well plates to verify drug effects. On the next day, IO101, IO100, IO100-Con, IO101-Con and Gem at the highest concentration of 100 μM were diluted by 1/10 per each well, and prepared at a concentration of 4 points up to 100 nM. Then, the cells seeding in the 96 well plates were treated using the above prepared variants. After 48 hours, 10 μl of WST-1 solution was added to the wells and incubated in a 37° C. incubator for 1 hour. Subsequently, each sample was measured at 440 nm in a micro plate reader (VERSA Max). After calculation of the measured values, a cell survival rate graph for each treatment concentration was drawn up.

A short description of series [4]: in vivo. The following applies: rat, iv. As for the experimental part: Sprague-Dawley male rats were subjected to induced anesthesia with isoflurane, which is an inhalation anesthetic, then a polyethylene (PE) tube (Clay Adams, Becton Dickinson, NJ, USA) was inserted into a carotid artery (for blood collection) and sutured with a suture, followed by fixing an end of the suture behind the neck. During surgery, anesthesia was maintained using ether and about 0.5 mL of physiological saline containing heparin (20 units/mL) was injected to prevent blood from clotting in a cannula. After the surgery is finished, the rats were placed in metabolic cages and allowed to recover completely from the anesthetic condition (4 to 5 hours), respectively. […] 1 and 2 ml/kg of drugs were administered intravenously. […] 5. 15. 30, 45, 60, 120, 360 and 720 minutes after the administration, 0.3 mL of blood was each collected through a […]. […] Then, the blood in the Eppendorf tube was immediately centrifuged, followed by storing the plasma.
All analytical procedures were implemented under conditions of shielding the tube. That is, all procedures were performed under quantification condition: SRM (selected reaction monitoring) mode (see Table 5 above), fixed phase condition: Hypersil gold C18, 1.9 μm, 100×2.1 mm^2 (Thermo Scientific, Matriks, Oslo, Norway), and mobile phase condition: distilled water (A) containing 0.1% formic acid and acetonitrile (B) (see Table 6 above).
Metformin as an internal standard substance (IS) was dissolved in acetonitrile to prepare another working solution of 645 ng/mL.
150 μL of the internal standard, that is, metformin was added to 50 μL of plasma (645 ng/mL in acetonitrile) and vortexed for 10 minutes, followed by performing centrifugation at 15,000 rpm and […] for 20 minutes. Thereafter, 150 μL of the supernatant was taken and transferred to another Eppendorf tube, and then the organic solvent was dried under a nitrogen stream. Then, 125 μL of tertiary distilled water was added to the dried Eppendorf tube, allowed to be redissolved. Then, the solution was vortexed for 5 minutes, centrifuged at 15,000 rpm and […] for 5 minutes. Thereafter, 100 μL of the supernatant was transferred to the vial for LC-MS/MS, 5 μL of the supernatant was injected and analyzed by LC-MS/MS.
Values of an area under the plasma concentration-time curve (AUCt) were calculated using a log-linear trapezoidal equation from the plasma concentration-time curves after the administration of drug to the final quantification time (specifically, the linear-trapezoidal equation is used in a section where the plasma concentration is increased, while in another section where plasma concentration is decreased, the trapezoidal equation is used by log transforming the concentration value). After oral administration, the highest plasma concentration (Cmax) and the time to reach the highest plasma concentration (Tmax) were determined from the plasma concentration-time curve. Values of the area (AUCinf) under the plasma concentration till infinite time-time curve were determined using the following equation. A terminal elimination rate constant (γZ) and half-life (t1/2) were determined from a slope of elimination of the plasma concentration. AUinf=AUCt+Ct/γZ(Ct: final quantification concentration, γZ: terminal elimination rate constant)

For series [5], the system named is MD-MBA 231 (breast cancer). Description: Cell proliferation inhibition (MTT), MD-MB231. The format is cell-based. The following applies: MTT assay, 3 days.
Procedure: as §1, §2

For (Gem)2-[TGG]3[TTG][TGG]2 [compound 6], in series [1], the dFdC/dFdU ratio was 2.84.
The same measure, in the same setting: next, (Gem)2-[TGG]6[TTG][TGG]6 [compound 16]: 13.59.
For the substance “(Gem)2-[TGG]4[TTG][TGG]5 (DNA TGGTGGTGGTGGTTGTGGTGGTGGTGGTGG; DNA, 5' {Gem}-{Gem}, backbone not given here) [compound 11, gemcitabine-containing oligonucleotide variant]”, the dFdC/dFdU ratio in series [1] turned out to be 14.10. Further, the IC50 – broadly, the concentration at which inhibition is half-maximal – in series [2] is 8.5 nM; in series [5], 15 nM. Besides, in series [3], the “pancreatic cancer cell growth inhibition (cell survival rate)” value is listed as “pancreatic cancer cell growth was effectively inhibited”. Further, in series [4], the “dFdU Tmax” value was determined as 6 h.
Regarding (Gem)2-[TGG]1[TTG][TGG]2 [compound 2], the dFdC/dFdU ratio in series [1] is reported as 2.01.
The same measure, in the same setting: with (Gem)2-[TGG]3[TTG][TGG]3 [compound 7] the figure was 3.29; with (Gem)2-[TGG]6[TTG][TGG]5 [compound 15], 13.67.
“(Gem)2-[TGG]4[TTG][TGG]4 (DNA TGGTGGTGGTGGTTGTGGTGGTGGTGG; two 5' gemcitabine residues, chemistry not fully specified) [compound 10, gemcitabine-containing oligonucleotide variant]”: the dFdC/dFdU ratio in series [1] was determined as 12.00. Moreover, the values for the IC50 in series [2] and in series [5] were 8.9 nM and 18 nM, respectively. Moreover, the “pancreatic cancer cell growth inhibition (cell survival rate)” value in series [3] is reported as “effectively inhibits pancreatic cancer cell growth in proportion to a drug concentration”.
Consider (Gem)2-[TGG]5[TTG][TGG]4 [compound 12], for which, in series [1], the dFdC/dFdU ratio came out at 13.63.
Same read-out and setting: with (Gem)2-[TGG]5[TTG][TGG]5 [compound 13] the figure was 11.85; with (Gem)2-[TGG]2[TTG][TGG]2 [compound 4], 2.61; with (Gem)2-[TGG]5[TTG][TGG]6 [compound 14], 11.59.
Same read-out and setting: next, (Gem)2-[TGG]2[TTG][TGG]3 [compound 5]: 2.79; (Gem)2-[TGG]2[TTG][TGG]1 [compound 3]: 2.20; (Gem)2-[TGG]4[TTG][TGG]3 [compound 9]: 6.04.
Still for that read-out and setting: next, (Gem)2-[TGG]3[TTG][TGG]4 [compound 8]: 3.80; (Gem)2-[TGG]1[TTG][TGG]1 [compound 1]: 1.76.
